PMC12040169 (PLOS Biology, 2025)

Assay: in vitro
Settings: human, hela cells, % viability
For `CCC(=O)N1CCC2(CC1)Nc1ccccc1-n1cccc12` [CBK283488], the viability at 28.5 h, 10 µM was 108%.
`CC(Oc1ccc(Cl)cc1Cl)C(=O)NCCc1cccc(Cl)c1` (stereo not drawn) [CBK265489] gave a viability at 28.5 h, 10 µM of 84.2%.
Work on `Nc1nc2c3c(c(-c4ccccc4)nc2[nH]1)CCCC3` [CBK020648] yielded a viability at 28.5 h, 10 µM of 78.2%.
In the case of `CCNC(=O)N1CCC[C@@H](O)[C@H](NC(=O)c2ccc(OC)cc2)C1` [CBK289066], the viability at 28.5 h, 10 µM is reported as 88.2%.
Work on `c1ccc2c(c1)CCN2c1ncnc2[nH]cnc12` [CBK291104] yielded a viability at 28.5 h, 10 µM of 100%.
`O=C(Nc1cc2cccnc2nc1Cl)c1ccc(C(F)(F)F)cc1[N+](=O)[O-]` [CBK091348] showed a viability at 28.5 h, 10 µM of 89.9%.
`Cn1c(-c2ccccc2)c(C(=O)C(N)=O)c2ccccc21` [CBK288465] showed a viability at 28.5 h, 10 µM of 104%.
For `Cc1ccc(-c2nc(C3CCCN3C(=O)C3CC3C(=O)O)n3ccccc23)cc1` (stereo not drawn) [CBK046559], the viability at 28.5 h, 10 µM was 79.8%.
Work on `O=[N+]([O-])c1ccc2c(c1)nnn2CN1CCCCC1` [CBK261663] yielded a viability at 28.5 h, 10 µM of 90.4%.
Compound `CC(C)OC(=O)N1CCC(N(C)Cc2ccc(-c3ccc(S(C)(=O)=O)cc3)cn2)CC1` [CBK165581T] has a viability at 28.5 h, 10 µM of 90.8%.
In the case of `O=C1Nc2ccccc2C12NN=C(c1ccccc1)S2` (stereo not drawn) [CBK017221], the viability at 28.5 h, 10 µM is reported as 100%.
`COC(=O)c1ccc2oc(-c3cc(C(O)CNC(C)(C)C)ccc3OC(C)C)cc(=O)c2c1` (stereo not drawn) [CBK009944C] gave a viability at 28.5 h, 10 µM of 85%.
`O=C(O)C(Cc1ccccc1)N1C(=O)c2ccccc2C1=O` (stereo not drawn) [CBK260904] showed a viability at 28.5 h, 10 µM of 97.6%.
Compound `c1coc(C2N3CCC4(CC3)c3[nH]c5ccccc5c3CCN24)c1` (stereo not drawn) [CBK282862] has a viability at 28.5 h, 10 µM of 112%.
`COCCNC(=O)c1ccc(-c2ccccc2OC)nc1N(C)C` [CBK106052] showed a viability at 28.5 h, 10 µM of 92%.
`O=c1[nH]nc2c(S(=O)(=O)N3CCOCC3)cccn12` [CBK288469] gave a viability at 28.5 h, 10 µM of 94.1%.
For `C#CCn1ncc2c3sc(C)cc3n(CC)c2c1=O` [CBK284225], the viability at 28.5 h, 10 µM was 89.5%.
`CC(C)OC(=O)COc1ccc2c(=O)c(Oc3ccccc3Br)coc2c1` [CBK264226] showed a viability at 28.5 h, 10 µM of 94%.
With `O=C(O)CN1C(=O)/C(=C/C2=Cc3ccccc3OC2)SC1=S` [CBK264787] the viability at 28.5 h, 10 µM was 103%.
In the case of `Cc1cc2nc(-c3ccc(C(=O)O)cc3)[nH]c2cc1C` [CBK096054], the viability at 28.5 h, 10 µM is reported as 91.6%.
Compound `CC1(C)CC(=O)C(=CNCCCn2ccnc2)C(=O)C1` [CBK261686] has a viability at 28.5 h, 10 µM of 91.3%.
With `O=C(c1cccs1)N1CCCN(c2nccc(C(F)(F)F)n2)CC1` [CBK019390] the viability at 28.5 h, 10 µM was 89.4%.
In the case of `COCc1nc2n(n1)CC(NC1CCc3ccccc3CC1)CC2` (stereo not drawn) [CBK304737], the viability at 28.5 h, 10 µM is reported as 96.1%.
In the case of `CC(C)OC(=O)CN1C(=O)N2CCCN=C2c2ccccc21` [CBK284394], the viability at 28.5 h, 10 µM is reported as 89.4%.
`COc1ccc(NC2=CC(=O)CC(c3ccc(C)cc3)C2)c(OC)c1` (stereo not drawn) [CBK264845] showed a viability at 28.5 h, 10 µM of 111%.
In the case of `O=C(Nc1ccncc1)c1cc2cc(F)ccc2[nH]1` [CBK107346], the viability at 28.5 h, 10 µM is reported as 103%.
`CCOC(=O)CN1CCC(Oc2nccnc2OCc2ccc(Cl)c(Cl)c2)CC1` [CBK083113T] gave a viability at 28.5 h, 10 µM of 96.7%.
With `CC(Oc1ccc(F)cc1)C(=O)NCCN1CCOCC1` (stereo not drawn) [CBK265508] the viability at 28.5 h, 10 µM was 99.4%.
Compound `O=C(NCC(F)(F)F)c1cnc(-c2ccc(Cl)cc2)c(-c2ccco2)c1` [CBK037468] has a viability at 28.5 h, 10 µM of 86.2%.
`CN(C(=O)c1cccnc1)C(CC1CCCCC1)C1CCCCC1` (stereo not drawn) [CBK015849] gave a viability at 28.5 h, 10 µM of 99.1%.
Work on `O=C(NC1CCN(CC(F)(F)F)CC1)c1cnc(-c2ccccc2)s1` [CBK305474] yielded a viability at 28.5 h, 10 µM of 98.4%.
`COC(=O)[C@H]1CCc2ccccc2N1C(=O)c1ccco1` [CBK284259] showed a viability at 28.5 h, 10 µM of 84.5%.
Work on `CN(C(=O)c1cccs1)c1ccc(Oc2ncc(C(F)(F)F)cc2Cl)cc1` [CBK161654] yielded a viability at 28.5 h, 10 µM of 89.6%.
`O=C(Cc1ccc(F)cc1)N1CC[C@@H](c2ccccc2)[C@H](O)C1` [CBK283714] gave a viability at 28.5 h, 10 µM of 84.5%.
For `CN(Cc1ccccc1)c1nccnc1-c1ccc(F)c(Cl)c1` [CBK037997], the viability at 28.5 h, 10 µM was 107%.
Compound `CC(CNC(=O)C(C)(C)C)NC(=O)C(C)(C)C` (stereo not drawn) [CBK265443] has a viability at 28.5 h, 10 µM of 93.6%.
`Cc1ccc(SCCNC(=O)CSc2n[nH]c(=O)n2C2CC2)cc1` [CBK295605] showed a viability at 28.5 h, 10 µM of 120%.
With `CCOc1ccc(C(CC(=O)O)C(=O)O)cc1` (stereo not drawn) [CBK261363] the viability at 28.5 h, 10 µM was 96.7%.
`COc1ccc2oc(C(=O)NCCN3CCOCC3)c(C)c2c1OC` [CBK269913C] gave a viability at 28.5 h, 10 µM of 86.8%.
For `Cc1noc(C)c1S(N)(=O)=O` [CBK022939], the viability at 28.5 h, 10 µM was 84.6%.
With `CN1CCN(c2cc(CNC(=O)c3cc(=O)[nH]c4ccccc34)ccn2)CC1` [CBK279658] the viability at 28.5 h, 10 µM was 101%.
In the case of `Cc1cc2c(=O)n(Cc3ccco3)c(SCc3cc(O)[nH]n3)nc2s1` [CBK268291], the viability at 28.5 h, 10 µM is reported as 94.3%.
In the case of `CC(=O)N(C)c1nc(-c2cccc(N(C)C)c2)ccc1C(=O)Nc1ccc(C(F)(F)F)cc1` [CBK076623], the viability at 28.5 h, 10 µM is reported as 98.5%.
With `O=C(NCCc1ccc(F)cc1)C1CN(C(=O)c2ccc3nsnc3c2)C1` [CBK285690] the viability at 28.5 h, 10 µM was 95.8%.
For `O=C1NC(c2ccccc2)=NC1(NS(=O)(=O)c1ccccc1)C(F)(F)F` (stereo not drawn) [CBK267474], the viability at 28.5 h, 10 µM was 88.3%.
